Patent publication US20190284192A1, “NITROGENOUS MACROCYCLIC COMPOUND, PREPARATION METHOD THEREFOR, PHARMACEUTICAL COMPOSITION AND APPLICATION THEREOF” (LUOXIN PHARMACEUTICAL (SHANGHAI) CO., LTD., priority 2016, published 2019)
pIC50: −log10 of the molar value. Where two headings read alike, the source gives them in different places.

Experiments:
SU-DHL-6 cells = assay: Inhibitory effect on SU-DHL-6 cells (CellTiter-Glo); type: cell-based; details: Homo sapiens, SU-DHL-6, 72 h, read-out: SU-DHL-6
Description: Determinations of the inhibition of the compounds from the above embodiments against SU-DHL-6 cells, the detailed operation steps are as followed:
The 1st Day: Seed the Cells on the Plate
1. The cells were verified that they were in good conditions by observation under microscope;
2. The cells were transferred to a centrifuge tubes, after centrifuged at 1000 rpm for 5 min, the supernatant was discarded;
3. The complete substrate (1640+10% FBS) was added, then blown and patted into single cell suspension, counted by Vi-cell cytometer, the cell suspension was adjusted to desired cell density by the complete medium.
4. The cells were inoculated into a 96 well plate, the cell number was 12000/well at 100 μL per well, 100 μL complete medium was added into the black control;
5. 37° C., 5% CO2 culture overnight.
The 2nd Day: Addition of the Drugs
1. 1000× Compound Plate Preparation
1.1. The test compound was prepared into 10 mM working solution by using DMSO. Then the STS was prepared into 2 mM working solution by using DMSO.
1.2. In the round bottom 96 wells plate, the column 2 of row A to H was added into 60 μL 10 mM test compound (or STS) working solution, columns 3-11 were added into 40 μL DMSO, 20 μL drug solution was pipetted from the column 2 to the column 3, blown and patted for a homogeneous mixture; then 20 μL solution was pipetted from the column 3 to the column 4, blown and patted for a homogeneous mixture, sequently, the drug was diluted by 3 times, 10 concentrations in total. The columns 1 and 12 were supplemented with 40 μL of DMSO.
2. Intermediate plate preparation
A sterile V-bottom 96 deep well plate was used and in each well, 495 μL FBS-free PRMI 1640 medium was added, then 5 μL of the diluted compound (or DMSO) in the 1000× compound plate was pipetted into corresponding position of the V-bottom 96 well plate, blown and patted evenly.
3.1. The cell plate was taken out from the incubator and was observed under microscope. The diluted compound or DMSO in the intermediate plate was added into the cell plate, 11 μL each well.
3.2. The cell was continued to be cultured at 37° C., 5% CO2 for 72 hours.
The 5th Day: CellTiter-Glo Detection of the Cell Activity
1. The CellTiter-Glo buffer and the reaction substrate were taken out from the refrigerator, after balanced to r.t., the buffer was poured into a brown bottle containing the substrate, the bottle was upside down to have the substrate powder sufficientaly dissolved.
2. The cell was observed under microscope; the cell plate was balanced to r.t.
3. The prepared CellTiter-Glo was added into the 96 well plate, at 100 μL/well.
4. The cell plate was placed on a shaker for 10 min, followed by standing at r.t. for 10 min.
5. A white seal film was attached to the bottom of the well plate, and the chemiluminescence signal of each well was detected by the Enspire microplate detector.
6. XLfit was used for data processing. Inhibition rate %=(d-c)/(d-b)×100, while d is the signal value of the DMSO treated group, c is the signal value of the compound treated group, b is signal value of the blank control that only containing medium and DMSO without cells. The data was fitted using the f (x)205[fit=(A+((B−A)/(1+((C/x)^∧D))))] equation in the XLfit software.

MV-4-11 cells = assay: Inhibitory effect on MV-4-11 cells (CellTiter-Glo); type: cell-based; details: Homo sapiens, read-out: MV-4-11
Description: 2. The cells were transferred to a 15 mL centrifuge tube, after centrifuged at 1000 rpm for 5 min, the supernatant was discarded;
3. The complete medium (IMDM+10% FBS) was added, then blown and patted into single cell suspension, counted by Vi-cell cytometer, the cell suspension was adjusted to desired cell density by the complete medium.
4. The cells were inoculated into a 96 well plate, the cell number was 15000/well at 100 μL per well, 100 μL complete medium was added into the black control.
2. Intermediate plate areparation
6. XLfit was used for data processing. Inhibition rate %=(d−c)/(d−b)×100, while d is the signal value of the DMSO treated group, c is the signal value of the compound treated group, b is signal value of the blank control that only containing medium and DMSO without cells. The data was fitted using the f(x)205[fit=(A+((B−A)/(1+((C/x)^∧D))))] equation in the XLfit software.

[1] = Metabolic stability in mouse liver microsomes; type: in vitro ADME; details: mouse liver microsomes 0.5 mg/mL, NADPH, 37° C.
Description: (§1) Determinations of the metabolic stability of the compound from the above embodiments, the detailed operation steps are as followed:
(§2) 1. Preparation of buffer C:
(§3) Buffer A: 1.0 L of 0.1 M potassium dihydrogen phosphate buffer (containing 1.0 mM EDTA);
(§4) Buffer B: 1.0 L of 0.1 M dipotassium hydrogen phosphate buffer (containing 1.0 mM EDTA);
(§5) Buffer C: 500 mL Buffer B was titrated with Buffer A to pH 7.4.
(§6) 2. 10 mM stock solution preparation:
(§7) 10 mM test compound: A certain amount of the test compound was weighed and dissolved in DMSO.
(§8) 10 mM control: 5.455 mg of ketanserin dissolved in 1 mL DMSO.
(§9) 3. Preparation of the drug solution:
(§10) 500 μM solution: 5 μL of 10 mM stock solution (see step 2) was added into 95 μL ACN;
(§11) 1.5 μM dosing solution (dissolved in liver microsome solution):
(§12) 18.75 μL of 20 mg/mL liver microsomes was added into 479.75 μL of Buffer C, then 1.5 μL of 500 μM solution was added and mixed gently by shaking.
(§13) 4. Preparation of 6 mM NADPH solution:
(§14) 15 mg NADPH was weighted, then added into 3 mL of buffer C to prepare a 6 mM NADPH solution.
(§15) 5. 30 µL of 1.5 μM dosing solution (see step 3) was added into the wells of the 96-well plate set at different time points (0 minutes, 5 minutes, 15 minutes, 30 minutes, 45 minutes), number of dulplicate sample is 2.
(§16) 6. Preparation of a 0 minutes sample: 135 μL ACN (with internal standard) was added to the 0 minutes well, followed by 15 µL of 6 mM NADPH solution.
(§17) 7. The 96-well plate containing 1.5 μM dosing solution and NADPH solution were preheated in a 37° C. water bath for 5 minutes.
(§18) 8. The 15 µL of 6 mM NADPH solution preheated was added into the wells set to 5 minutes, 15 minutes, 30 minutes, 45 minutes, then the reaction was initiated and started counting the time.
(§19) 10. The sample was vortexed for 10 min, and then centrifuged for 15 minutes on a centrifuge (Thermo Multifuge×3R) using 5594×g.
(§20) 11. 50 μL of the supernatant was taken from the centrifuged sample, transferred to a 96-well sample plate to which 100 μL of ultrapure water had already been added, mixed, and finally sent to LC-MS/MS for analysis.
(§21) Half time (T1/2)=0.693/K (K is the rate constant obtained by linear regression of the logarithm of the concentration as vertical coordinates and the culturing time as the abscissa)
(§22) 2. According to the equation formula bellow, Excel was used to plot the compound content versus reaction time, as well as half life calculation (min)
(§23) Y=(Y0−Plateau)×e^(−K*X)+Plateau
(§24) Y0 represents the compound content at 0 minutes; Y represents the compound content; X represents the time point; K represents degration rate constant of the compound; Plateau represents the lowest possible content of the compound (defined herein as 0).

BRD4 (BD2) = molecular target: T1, BRD4 (BD2) (Homo sapiens, UniProt O60885); assay: BRD4 (BD2) bromodomain binding, HTRF; details: 2 h incubation at r.t.
T1 construct: Each member comprises two tandem bromodomains (BD1 and BD2) for recognizing the acetylated lysine residues

[2] = Cassette pharmacokinetic study, intravenous or oral administration; type: in vivo, female Balb/c nude mice; parameters: Cmax: unit not given here; details: for F: PO 2 mg/kg vs IV 0.5 mg/kg; for Cmax / AUC(0-inf) / AUC(0-t) / MRT inf / clearance / half-life / Vd / Tmax: N = 3, cassette; for AUC(0-inf) / AUC(0-t) / MRT inf / clearance / half-life / Vd / Tmax: female, Balb/c nude, mouse, whole blood; for half-life: read-out: Terminal t1/2 (converted); for Vd: read-out: Vss
Description: Determinations of the pharmacokinetic parameters of ABBV-075 (standard control), 4009, 4018, 4026 and 4031 in femal Balb/c nude mice after intravenous or oral administration.
Detailed Experimental Steps:
6 female Balb/c nude mice weighing 18-20 g were divided into two groups (3/group), after fixation, the intravenous group: 0.5 mg/kg (5 mL/kg) injected by caudal vein (N=3); the oral group: 2 mg/kg (10 mL/kg) by intragastic administration (N=3). Approximately 20 μL of blood was drawn behind the eyeball at the sampling point and placed in EDTA-2K tube. The sample was immediately diluted with 40 μL of double distilled water and vortexed until well mixed. Blood samples were stored at approximately −70° C. and submitted to the BA group for analysis (LC/MS). 30 μL of blood sample was added with 200 μL of H2O and 30 μL of IS dexamethasone, 200 ng/mL), layered by LLE, and 1 mL of MTBW was added as an organic extraction solvent. The mixture was vortexed for 10 min and centrifuged at 10,000 rpm for 5 min. 850 μL of the supernatant was evaporated under nitrogen until desiccated. The desiccated extract was re-mixed with 150 μL of 50% methanol, vortexed for 2 min, and then analyzed by injecting 5 μL of the supernatant into LC-MS/MS.
2. Intravenous/oral administration formula: 5% DMSO, 95% (10% HP-3-CD in water)
3. PK calculation parameter used non-compartment model, WinNonlin 6.4 software calculation

BRD4 (BD1) = molecular target: T2, BRD4 (BD1) (Homo sapiens, UniProt O60885); assay: BRD4 (BD1) bromodomain binding, HTRF; details: 2 h incubation at r.t.
T2 construct: Each member comprises two tandem bromodomains (BD1 and BD2) for recognizing the acetylated lysine residues

[3] = Metabolic stability in human liver microsomes; type: in vitro ADME; details: human liver microsomes 0.5 mg/mL, NADPH, 37° C.
Description: as §1, §2, §3, §4, §5, §6, §7, §8, §9, §10, §11, §12, §13, §14, §15, §16, §17, §18, §19, §20, §21, §22, §23, §24

[4] = Body weight of MV-4-11 tumor-bearing mice during treatment; type: in vivo; details: intragastric QD*14, ABBV-075 3, GSK762 15, 4009 10 mg/kg
Description: The preparation and any revision of this experimental protocol are carried out in accordance with the evaluation criteria of the “Institute for Animal Care and Use (IACUC)” of Shanghai Chempartner Chemical Research Co., Ltd. The use and welfare of laboratory animals are carried out in accordance with the provisions of the Association for Assessment and Accreditation of Laboratory Animal Care (AAALAC). Animals are monitored daily for health and death. Routine examinations include observations of the effects of the test substance and the drug on the daily behavior of the animal such as behavioral activities, intake of water and feeds, weight change (three weights measured weekly), appearance signs or other anormal circumstance. The number of animal deaths and side effects in the group were recorded based on the number of animals in each group.

[5] = system: MV-4-11 subcutaneous xenograft tumor; assay: Anti-tumor efficacy in vivo, MV-4-11 subcutaneous xenograft model; parameters: species or system BALB/c nude mice; details: intragastric QD*14
Description: According to the growth of the cells, the treatment was passaged twice a week. When the cells are in the exponential growth phase, the cells are collected, counted, and inoculated.
Experimental protocol: 0.2 mL of cell suspension containing about 5×10^MV-4-11 cells (cell suspended in IMDM medium and added with 50% Matrigel) was inoculated subcutaneously into the right back of each mouse. Group administration was initiated when the average tumor volume reached approximately 136.94 mm^3 (day 15 post inoculation). Grouping method: Animals were weighed before dosing and tumor volume was measured. Grouping designed based on tumor volume.
The experimental indicator is to investigate whether tumor growth can be inhibited, delayed or cured. Tumor diameters were measured with vernier calipers three times a week. The formula for calculating tumor volume is: V=0.5×a×b^2, a and b represent the long and short diameters of the tumor, respectively. The antitumor effect of the compound was evaluated by T/C (%). T/C %=TRTV/CRTV×100% (TRTV: treatment group RTV; CRTV: negative comparative group RTV). The relative tumor volume RTV is calculated as RTV=Vt/V1. Where V1 is the measured tumor volume at the time of group administration (i.e., Day 1), and Vt is the tumor volume at each measurement.
The tumor volume and tumor size were analysed by statistical software. GraphPad Prism software was used for analyzation, p<0.05 is considered to have significant difference, p<0.01 is considered to have extremely significant difference.
Two-way Anova Bonferroni post-test is used to compare the tumor volume difference between the control group and the treatment group.

[6] = MV4-11, 72 hours, CellTiter-Glo

## Cc1sc2c(c1C)C(c1ccc(Cl)cc1)=N[C@@H](CC(=O)OC(C)(C)C)c1nnc(C)n1-2 [(+)-JQ1, reference compound]
SU-DHL-6 cells
  pIC50: 6.70
MV-4-11 cells; MV4-11, 72 h
  pIC50: 6.61

## CCS(=O)(=O)Nc1ccc2c(c1)-c1cn(C)c(=O)cc1CN=C2c1ccc(F)cc1 [Compound 4018, N-(7-(4-fluorophenyl)-2-methyl-3-oxo-3,5-dihydro-2H-benzo[c]pyrido[3,4-e]azapin-10-yl)ethanesulfonamide]
[1]
  MLM_T1/2: 352.12 min
[1]; pH 7.4, read-out: MLM_CLint
  CLint scaled at 1 µM: 15.5 mL/min/kg
BRD4 (BD2)
  pIC50: 8.70
[2]
  F: 12.2%
[2]; PO 2 mg/kg
  Cmax: 41.9
  AUC(0-inf): 98.1 ng·h/mL
  AUC(0-t): 89.7 ng·h/mL
  Tmax: 0.667 h
  half-life: 2.18 h
[2]; IV 0.5 mg/kg
  AUC(0-inf): 201 ng·h/mL
  AUC(0-t): 199 ng·h/mL
  MRT inf: 0.59 h
  clearance: 41.8 mL/min/kg
  half-life: 0.685 h
  Vd: 1.51 L/kg
BRD4 (BD1)
  pIC50: 8.52
MV-4-11 cells; [6]
  pIC50: 8.30
[3]
  HLM_T1/2: 1043.26 min
[3]; pH 7.4, read-out: HLM_CLint
  CLint scaled at 1 µM: 1.67 mL/min/kg

## CCS(=O)(=O)Nc1cc2c(cc1Cl)C(c1ccc(F)cc1)=NCc1cc(=O)n(C)cc1-2 [Compound 4031, N-(9-chloro-7-(4-flurophenyl)-2-methyl-3-oxo-3,5-dihydro-2H-benzo[c]pyrido[3,4-e]azepin-10-yl)ethylsulfonamide]
[1]
  MLM_T1/2: ∞
BRD4 (BD2)
  pIC50: 9.00
[2]
  F: 108%
[2]; PO 2 mg/kg
  Cmax: 1009
  AUC(0-inf): 3330 ng·h/mL
  AUC(0-t): 3300 ng·h/mL
  Tmax: 0.5 h
  half-life: 3.84 h
[2]; IV 0.5 mg/kg
  AUC(0-inf): 771 ng·h/mL
  AUC(0-t): 729 ng·h/mL
  MRT inf: 3.5 h
  clearance: 10.9 mL/min/kg
  half-life: 2.72 h
  Vd: 2.34 L/kg
BRD4 (BD1)
  pIC50: 8.70
MV-4-11 cells; [6]
  pIC50: 8.52
[3]
  HLM_T1/2: ∞

## CCNC(=O)C[C@@H]1N=C(c2ccc(Cl)cc2)c2cc(OC)ccc2-n2c(C)nnc21 [GSK762]
[4]; relative body weight change vs Day 1
  Average RCBW, Treatment end Day 15: 5.07%
[4]; x ± SEM
  Average body weight, Treatment end Day 15: 21.86 ± 0.38 g
  Average body weight, Treatment start Day 1: 20.82 ± 0.40 g
[5]; ABBV-075 3 mg/kg, GSK762 15 mg/kg, 4009 10 mg/kg
  anti-tumor effect on the MV-4-11 cell xenograft tumor mouse model: no significant anti-tumor effect
[5]; ABBV-075 3, GSK762 15, 4009 10 mg/kg
  Average tumor weight, 15th day of treatement: 0.522 ± 0.11 g
